Values of other authors, collected in paper PMC4626739 (Toxins, 2015).

Which “resistance to chaotropic agents and proteases” value does the source give for Kalata B1 here?
Its value is “extremely resistant”.

What about the thermal stability of the same substance?
The thermal stability was “highly thermostable”.
